# Test results published in patent US7892764B2, “System for seizure suppression” (priority 2006, dated 2011).
# How the values were obtained:
# Type in all cases: cell-based
# [1] = tested on: ASIC current; test: Effect of antiepileptic agents on ASIC current activated by pH drop from 7.4 to 6.0 in isolated neurons
# Description: Activation of ASICs may be involved in increased neuronal excitability and thus seizure generation. Inhibition of ASICs, on the other hand, is expected to be antiepileptic. To test this hypothesis further, we performed a study to examine the effect of currently available antiepileptic agents—particularly those agents for which the mechanism of action is not fully understood—on ASIC currents. We suspected that some of the current antiepileptic agents may, in fact, exert their antiepileptic effect partially through their inhibition of an ASIC current. Three commonly used antiepileptic agents were tested on an ASIC current activated by a pH drop from 7.4 to 6.0. […] Perfusion of lamotrigine (1 mM), however, inhibited the current by 43±13% (n=3, p<0.05, FIG. 15B), whereas perfusion of 1 mM felbamate reduced the amplitude of the ASIC current by nearly 60% (n=3. FIG. 15C).
# [2] = molecular target: T1, ASIC current (Mus musculus, UniProt Q6NXK8); test: Acid-induced (pH 6.0) ASIC current in mouse cortical neurons, patch-clamp recording; conditions: read-out: IC50 (concentration at 50% inhibition) of ASIC current amplitude; pH drop 7.4 to 6.0, holding potential −60 mV
# T1 sequence (Q6NXK8 1-526): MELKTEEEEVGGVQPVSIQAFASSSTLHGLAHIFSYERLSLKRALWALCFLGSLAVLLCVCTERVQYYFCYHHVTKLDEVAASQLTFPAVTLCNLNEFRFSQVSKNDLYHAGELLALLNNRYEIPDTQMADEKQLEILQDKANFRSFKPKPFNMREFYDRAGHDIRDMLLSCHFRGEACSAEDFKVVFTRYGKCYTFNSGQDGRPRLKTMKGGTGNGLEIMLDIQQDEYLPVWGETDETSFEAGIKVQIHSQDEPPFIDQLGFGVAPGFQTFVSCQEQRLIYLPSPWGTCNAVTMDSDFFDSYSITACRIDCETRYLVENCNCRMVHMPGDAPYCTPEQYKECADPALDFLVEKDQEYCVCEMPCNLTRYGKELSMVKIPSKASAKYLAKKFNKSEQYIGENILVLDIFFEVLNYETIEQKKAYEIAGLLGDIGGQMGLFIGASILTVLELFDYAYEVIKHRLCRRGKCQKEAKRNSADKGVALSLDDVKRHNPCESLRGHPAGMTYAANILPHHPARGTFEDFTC
# Description: Mouse cortical neurons in culture were monitored electrophysiologically by patch-clamp recording of current at a holding potential of −60 mV. An ASIC current was induced at this holding potential by dropping the extracellular pH from physiological pH (pH 7.4) to pH 6.0, in the presence of different concentrations of benzamil (FIG. 11) or EIPA (FIG. 12). The current traces obtained are presented in the upper part of FIGS. 11 and 12. […] Therefore, amiloride derivatives inhibit ASIC channel activity and may be used for seizure suppression in subjects prone to seizures and/or having a seizure.
# [3] = tested on: mouse hippocampal slices; test: Low Mg2+-induced epileptiform bursting activity (evoked and spontaneous) in hippocampal slices; conditions: 200 ng/mL PcTX1 venom or 20 nM synthetic PcTX1, absence of Mg2+
# Protocol: Limbic seizures (Avoli et al., 2002) are modeled by removing Mg^2+ from artificial cerebral spinal fluid (aCSF) in slices of hippocampal-entorhinal cortex, which triggers interictal-like bursting activity, or spontaneous ictal-like events (Wong et al., 2001; Anderson et al., 1986). In the presence of normal Mg^2+ (1.5 mM), stimulation of Schaffer collaterals induces single population spike or EPSP in the CA1 region of the hippocampus. […] Perfusion with Mg^2+-free aCSF for about 30 min evoked synchronous burst firing with the same stimulation intensity. In about, 30% of the slices, spontaneous clustered bursts developed in the absence of electrical stimulation. Bath perfusion of amiloride or PcTX1 for 10 min reduced the amplitude and frequency of evoked bursting activity (FIGS. 5A and 5B). Amiloride (100 μM) reduced the amplitude of the first and the second population spikes (from 1.2±0.2 mV to 0.5±0.2 mV and 0.6±0.03 mV to 0.2±0.05 mV, respectively (n=9: p<0.01, FIGS. 5A and 5B), and the number of population spikes (from 4.7±0.6 to 3.3±0.8, n=9, p<0.05)). Similarly, PcTX1 (200 ng/mL) attenuated the amplitude of the population spike (from 2.1±0.3 to 1.6±0.2 mV, n=9, p<0.05) and the number of spikes (from 4.2±0.6 to 3.0±0.6, p<0.05).
# Preparation of hippocampal slices and brain slice recording. Hippocampal slices were obtained from 8- to 10-week-old mice. The protocol for brain-slice recording was approved by the Institutional Animal Care and Use Committee of Legacy Research. Animals were deeply anesthetized with isoflurane and decapitated. Brains were quickly removed and placed in ice-cold solution that contained: 125 mM sucrose, 2.5 mM KCl, 26 mM NaHCO3, 1.25 mM NaHPO4, 6.0 mM […], 0.5 mM CaCl2, and 10 mM glucose, and was saturated with 95% O2 and 5% CO2 (pH 7.4). Hippocamnpal slices were cut in 400 μm thickness in transverse plane with a vibratome (Leica VT 1000S) and placed in a slice holding chamber (BSC-PC Prechamber, Warner Instrument) and incubated in normal artificial cerebral spinal fluid (aCSF) that contained: 125 mM NaCl, 2.5 mM KCl, 26 mM NaHCO3, 1.25 mM […], 1.0 mM MgSO4, 2.0 mM CaCl2, and 10 mM glucose, and was saturated with 95% O2 and 5% CO2 (pH 7.4).
# Following ˜60 min of incubation at room temperature, individual slices were transferred to a submerged slice chamber with a volume of 0.5 mL (Warner Instruments, Hamden, Conn.) and perfused with oxygenated aCSF (35° C.) at a rate of 3-4 mL/min. Recording electrodes were pulled from borosilicate glass and filled with aCSF. The population spike and the field excitatory postsynaptic potentials (fEPSP) were recorded in stratum pyramidale and striatum radiatum of hippocampal CA1 region, by stimulating Schaffer Collaterals.
# For low Mg^2+ induced epileptic burst activity, Mg^2+-free aCSF was perfused to the slices for ˜30 min. For stimulus-train induced bursting discharges (STIB), each stimulation train consisted of 120 pulses at 60 Hz and each pulse was 100 μsec in duration (Stasheff et al., 1985). A 10-minute interval of non-stimulation was provided between successive trains of high frequency stimulation. Stimulation electrodes were located in striatum radiatum between CA1 and CA3 region. The population spikes were recorded from striatum pyramidale of the CA3 region.
# Pharmacological and electrical bursting models. To induce epileptic burst discharges, Mg^2+-free aCSF was applied. Mg^2+-free aCSF was obtained by simply omitting MgSO4 from aCSF.
# [4] = molecular target: T2, ASICs (Mus musculus, UniProt Q6NXK8); test: Acid (pH 7.0/7.1)-induced membrane depolarization and neuronal firing, current-clamp recording; conditions: pH 7.0; amiloride 100 μM or synthetic PcTX1 20 nM
# T2 construct: Primary neuronal cultures were prepared from embryonic Swiss mice at 15 to 16 days of gestation; endogenous in cells
# T2 sequence (Q6NXK8 1-526): T1 sequence (Q6NXK8 1-526)
# Description: Unlike ischemia, only moderate pH changes (e.g., ˜0.3 pH unit) are reported in brain parenchyma during seizures (Chesler et al., 1988: Chesler et al., 1992), although pH in the synaptic cleft may be much lower (Chesler et al., 1992; Wemmie et al., 2006). […] One possibility is that voltage-clamp recording has relatively low sensitivity to resolve small current in whole-cell configuration. To provide more evidence that the decreases of pHo to the level seen in epilepsy can indeed activate the ASICs and cause neuronal excitation, we have also used current-clamp recording to study changes of membrane depolarization and neuronal firing by small changes of pHo. Due to the large input resistance of most CNS neurons (e.g., ˜500 MΩ), even a small membrane current (e.g., 10-20 pA, which is difficult to resolve in voltage-clamp recording in general) can induce significant membrane depolarization in current-clamp conditions. Mouse cortical neurons were used for current-clamp recordings 14 days after the culture.
# Cortical neuronal culture. Primary neuronal cultures were prepared from embryonic Swiss mice at 15 to 16 days of gestation according to our previously described techniques (Xiong et al., 2004). In brief, cerebral cortices from 10 to 12 embryos were dissected and incubated with 0.05% trypsin-EDTA for 10 min, dissociated by trituration with a fire-polished glass pipette, and plated on poly-L-ornithine-coated culture dishes at a density of 0.5×10^6 cells per dish. Neurons were cultured with Neurobasal medium supplemented with B27 (Invitrogen). The cultures were maintained at 37° C. in a humidified 5% CO2 atmosphere incubator and were used for experiments after 12-14 days.
# Patch clamp techniques. Whole-cell voltage-clamp and current-clamp recordings were performed as described in our previous studies (Xiong et al., 2004). […] Whole-cell currents were recorded using Axopatch 200B amplifiers with pCLAMP software (Axon Instruments, CA, USA). […]
compound,measurement,setting,value
CCC1(C)CC(=O)NC1=O (stereo not shown) [ethosuximide],effect on amplitude of the ASIC current,"[1]; 1 mM, bath application 5 min, pH drop from 7.4 to 6.0",did not affect
"CCN(c1nc(N)c(C(=O)N=C(N)N)nc1Cl)C(C)C [EIPA, 5-(N-ethyl-N-isopropyl)-amiloride]",IC50,[2],~20 µM
"synthetic PcTX1: chemically synthesized PcTX1 peptide, used at 20 nM",effect on frequency of spontaneous clustered bursting activity,[3],reduced the frequency
same,"effect on acid-induced neuronal excitation (membrane depolarization, firing rate)",[4],largely and significantly reduced
NC(=O)OCC(COC(N)=O)c1ccccc1 [felbamate],inhibition of ASIC current amplitude,"[1]; 1 mM, pH drop from 7.4 to 6.0",~60%
Nc1nnc(-c2cccc(Cl)c2Cl)c(N)n1 [lamotrigine],effect on desensitization of the ASIC current,[1],enhances the desensitization
same,inhibition of ASIC current amplitude,"[1]; 1 mM, pH drop from 7.4 to 6.0",43±13%
